Laboratory results as given in patent publication US11590453B2, “Membrane disinfectant” (Diversey, Inc., priority 2017, dated 2023).

Assay: pH of test solutions
Format: physicochemical

Measured: pH

O=[N+]([O-])O [Nitric Acid Solution, Nitric Acid]
2.00: solution of membrane compatibility test, Table 6 | solution of membrane compatibility test, Table 8 | solution of salt retention test, Table 7
